Results as given in patent US20240358693A1, “METHODS OF TREATING PAIN” (Aisa Pharma, Inc., priority 2023, published 2024).

Tested on: participants with SSc-RP
Experiment: Scleroderma Health Assessment Questionnaire (SHAQ): disability indices and visual analog scales
Format: in vivo, human
Source text: The standard, validated, patient reported outcome measures tool for SSc patients, the Scleroderma Health Assessment Questionnaire (SHAQ), will be used to assess the participant qualify of life. Details are attached in the Appendix. The participant quality of life will be scored, and a disability index calculated for each questionnaire completed by the patient at Screening and each in-clinic visit. The absolute change in participant quality of life from baseline to the end of each dosing period will be calculated similar to frequency data as before.
The SHAQ includes a Raynaud's VAS, which will be reported at screening and each in-clinic visit. The absolute change in Raynaud-VAS, assessed by the participants response to the SHAQ question ‘In the past 7 days, how much have your Raynaud's interfered with your daily activities?’ at baseline and the end of each dosing period will be calculated similar to frequency data as before.
The SHAQ is used to calculate a Disability Index to assess the participant qualify of life. The eight categories assessed by the Disability Index are 1) dressing and grooming, 2) arising, 3) eating, 4) walking, 5) hygiene, 6) reach, 7) grip, and 8) common daily activities. For each of these categories, patients report the amount of difficulty they have in performing two or three specific activities.
There are four possible responses for the Disability Index questions: • Without any difficulty=0 • With some difficulty=1 • With much difficulty=2 • Unable to do=3. • The highest score reported by the patient for any component question of the eight categories determines the score for that category. • If a component question is left blank or the response is too ambiguous to assign a score, then the score for that category is determined by the remaining completed question(s). • If all component questions are blank or if more than one answer is given, then follow up with the respondent is required. • If the respondent's mark is between the response columns, then move it to the closest one. If it's directly between the two, move it to the higher one.
Each of the disability items on the SHAQ has a companion aids/devices variable that is used to record what type(s) of assistance, if any, the participant uses for his/her usual activities. These variables (see below) are coded as follows: • 0=No assistance is needed. • 1=A special device is used by the patient in his/her usual activities. • 2=The patient usually needs help from another person. • 3=The patient usually needs BOTH a special device AND help from another person.
The scoring variables and scoring rules permit the computation of two disability indices, the Standard Disability Index and the Alternative Disability Index.
This question results in a new set of category scores that are computed by adjusting the score for each category, if necessary, based on the patient's use of an aid or device or assistance for that category. If either devices and/or help from another person are checked for a category, the score is set to “2”, unless the score is already “3” (i.e., scores of “0” or “1” are increased to “2”). For example, if the highest score for the dressing category is “1”, and the patient says they use a device for dressing, the computed category score would be “2”. The sum of the computed categories scores is then calculated and divided by the number of categories answered. This gives a score in the 0 to 3 range.
The aid and device variables are not used to calculate the alternative disability index; it is calculated by adding the scores for each of the categories and dividing by the number of categories answered. This gives a score in the 0 to 3 range.
The standard, validated, patient reported outcome measures tool for SSc patients, the SHAQ, was collected at the time points specified in the study schedules (FIG. 2 and FIGS. 4A and 4B) to assess the participant's quality of life. The SHAQ included a Raynaud's VAS that will also be reported separately.

[1] = Cilnidipine 10 mg, Day 12, PP Population Part A, SSc patients
[2] = Cilnidipine 10 mg, Day 12, PP Population, Part A
[3] = Cilnidipine 10 mg, PP Population Part A, SSc patients
[4] = Cilnidipine 20 mg (N = 3), Modified ITT, Part A
[5] = Cilnidipine 20 mg (N = 3), patients with diagnosis of SSc, sensitivity analysis, Modified ITT, Part A

COCCOC(=O)C1=C(C)NC(C)=C(C(=O)OC/C=C/c2ccccc2)C1c1cccc([N+](=O)[O-])c1 (stereo not shown) [Cilnidipine, cilnidipine]
SHAQ Visual Analogue Scale - Finger Ulcers, Change from Baseline, Mean [1]: −0.425
SHAQ Visual Analogue Scale - Finger Ulcers, Change from Baseline, Median [1]: −0.350
SHAQ Visual Analogue Scale - Finger Ulcers, Percent Change from Baseline, Mean [1]: −69.44%
SHAQ Visual Analogue Scale - Finger Ulcers, Percent Change from Baseline, Median [1]: −69.44%
SHAQ Visual Analogue Scale - Intestinal Problems, Change from Baseline, Mean [1]: −1.875
SHAQ Visual Analogue Scale - Intestinal Problems, Change from Baseline, Median [1]: −1.550
SHAQ Visual Analogue Scale - Intestinal Problems, Percent Change from Baseline, Mean [1]: −77.37%
SHAQ Visual Analogue Scale - Intestinal Problems, Percent Change from Baseline, Median [1]: −88.00%
SHAQ Visual Analogue Scale - Overall Disease Severity, Change from Baseline, Mean [1]: −0.900
SHAQ Visual Analogue Scale - Overall Disease Severity, Change from Baseline, Median [1]: −0.950
SHAQ Visual Analogue Scale - Overall Disease Severity, Percent Change from Baseline, Mean [1]: −56.96%
SHAQ Visual Analogue Scale - Overall Disease Severity, Percent Change from Baseline, Median [1]: −44.12%
SHAQ Visual Analogue Scale - Pain, Change from Baseline, Mean [1]: −0.100
SHAQ Visual Analogue Scale - Pain, Change from Baseline, Median [1]: 0.000
SHAQ Visual Analogue Scale - Pain, Percent Change from Baseline, Mean [1]: −9.88%
SHAQ Visual Analogue Scale - Pain, Percent Change from Baseline, Median [1]: 0.00%
SHAQ Visual Analogue Scale - Raynaud's, Change from Baseline, Mean [1]: 0.325
SHAQ Visual Analogue Scale - Raynaud's, Change from Baseline, Median [1]: 0.350
SHAQ Visual Analogue Scale - Raynaud's, Percent Change from Baseline, Mean [1]: 11.36%
SHAQ Visual Analogue Scale - Raynaud's, Percent Change from Baseline, Median [1]: −2.27%
SHAQ Alternative Disability Index: Change from Baseline, Mean [2]: 0.063
SHAQ Alternative Disability Index: Change from Baseline, Median [2]: 0.000
SHAQ Alternative Disability Index: In-Clinic Visit (Day 12), Mean [2]: 0.563
SHAQ Alternative Disability Index: In-Clinic Visit (Day 12), Median [2]: 0.500
SHAQ Alternative Disability Index: Percent Change from Baseline, Mean [2]: 15.87%
SHAQ Alternative Disability Index: Percent Change from Baseline, Median [2]: 15.87%
SHAQ Standard Disability Index: Change from Baseline, Mean [2]: 0.000
SHAQ Standard Disability Index: Change from Baseline, Median [2]: 0.000
SHAQ Standard Disability Index: In-Clinic Visit (Day 12), Mean [2]: 0.656
SHAQ Standard Disability Index: In-Clinic Visit (Day 12), Median [2]: 0.563
SHAQ Standard Disability Index: Percent Change from Baseline, Mean [2]: 0.00%
SHAQ Standard Disability Index: Percent Change from Baseline, Median [2]: 0.00%
SHAQ Visual Analogue Scale - Pain: Change from Baseline, Mean [2]: −0.100
SHAQ Visual Analogue Scale - Pain: Change from Baseline, Median [2]: 0.000
SHAQ Visual Analogue Scale - Pain: In-Clinic Visit (Day 12), Mean [2]: 1.875
SHAQ Visual Analogue Scale - Pain: In-Clinic Visit (Day 12), Median [2]: 1.950
SHAQ Visual Analogue Scale - Pain: Percent Change from Baseline, Mean [2]: −9.88%
SHAQ Visual Analogue Scale - Pain: Percent Change from Baseline, Median [2]: 0.00%
SHAQ Visual Analogue Scale - Breathing Problems, In-Clinic Visit (Day 12), Mean [3]: 1.575
SHAQ Visual Analogue Scale - Breathing Problems, In-Clinic Visit (Day 12), Median [3]: 0.000
SHAQ Visual Analogue Scale - Finger Ulcers, In-Clinic Visit (Day 12), Mean [3]: 0.275
SHAQ Visual Analogue Scale - Finger Ulcers, In-Clinic Visit (Day 12), Median [3]: 0.000
SHAQ Visual Analogue Scale - Intestinal Problems, In-Clinic Visit (Day 12), Mean [3]: 1.100
SHAQ Visual Analogue Scale - Intestinal Problems, In-Clinic Visit (Day 12), Median [3]: 0.300
SHAQ Visual Analogue Scale - Overall Disease Severity, In-Clinic Visit (Day 12), Mean [3]: 1.825
SHAQ Visual Analogue Scale - Overall Disease Severity, In-Clinic Visit (Day 12), Median [3]: 1.050
SHAQ Visual Analogue Scale - Pain, In-Clinic Visit (Day 12), Mean [3]: 1.875
SHAQ Visual Analogue Scale - Pain, In-Clinic Visit (Day 12), Median [3]: 1.950
SHAQ Visual Analogue Scale - Raynaud's, In-Clinic Visit (Day 12), Mean [3]: 1.925
SHAQ Visual Analogue Scale - Raynaud's, In-Clinic Visit (Day 12), Median [3]: 1.700
SHAQ Overall Severity: Baseline, Mean [4]: 2.667
SHAQ Overall Severity: Baseline, Median [4]: 2.900
SHAQ Overall Severity: Change from Baseline, Mean [4]: −1.633,
SHAQ Overall Severity: Change from Baseline, Median [4]: −1.600
SHAQ Overall Severity: Day 12, Mean [4]: 1.033
SHAQ Overall Severity: Day 12, Median [4]: 1.200
SHAQ Overall Severity: Percent Change from Baseline, Mean [4]: −62.64%
SHAQ Overall Severity: Percent Change from Baseline, Median [4]: −60.00%
SHAQ Standard Disability Index: Baseline, Mean [5]: 0.250
SHAQ Standard Disability Index: Baseline, Median [5]: 0.375
SHAQ Standard Disability Index: Change from Baseline, Mean [5]: −0.125
